Source: patent US12577216B2, “Triazine benzoate compound and application thereof” (SHENYANG SINOCHEM AGROCHEMICALS R&D CO., LTD., priority 2020, dated 2026)

Tests used:
Chenopodium album L. = details: postemergence application, doses of 7.81 and 3.91 g/ha; cited from earlier work
Amaranthus retroflexus = details: postemergence application, doses of 7.81 and 3.91 g/ha; cited from earlier work
Setaria faberi = details: postemergence application, doses of 7.81 and 3.91 g/ha; cited from earlier work
green bristlegrass = experiment: Determination of herbicidal activity, post-emergence stem and leaf spray, green bristlegrass; format: in vivo; details: for Herbicidal activity for Green Bristlegrass, control effect %: Table 5 parallel comparison
Procedure: (§1) Seeds of broadleaf weeds (zinnia and piemarker) or grassy weeds (green bristlegrass and barnyard grass) were respectively sown in a paper cup having a diameter of 7 cm and containing nutrient soil; after sowing, the seeds were covered with 1 cm of soil; the soil was pressed and watered, and then the seeds were cultivated in a greenhouse according to a conventional method; and stems and leaves were sprayed after 2-3 leaf stage of the weeds.
(§2) After the original medicinal acetone was dissolved, the test requires to use 1‰ of Tween 80 to stand in running water to prepare the solution to be tested with a required concentration. According to the design dose of the test, spray treatment was carried out on a track-type crop sprayer (designed and produced by British Engineer Research Ltd.) (spray pressure is 1.95 kg/cm^2, spray volume is 500 L/hm^2 and track speed is 1.48 km/h). The test was repeated for three times. The test material was treated and then placed in an operation hall. The medicinal liquid was naturally dried in the shade, and then was placed in a greenhouse and managed according to the conventional method. The response of the weeds to the drug was observed and recorded. After treatment, the control effects of the test drug on the weeds were visually inspected regularly, expressed by 0-100%. “0” represents no control effect and “100%” represents complete killing.

barnyard grass = experiment: Determination of herbicidal activity, post-emergence stem and leaf spray, barnyard grass; format: in vivo; details: for Herbicidal activity for Barnyard Grass, control effect %: Table 6 parallel comparison
Procedure: as §1, §2

[1] = tested on: Commelina benghalensis Linn.; details: postemergence application, doses of 7.81 and 3.91 g/ha; cited from earlier work
zinnia = experiment: Determination of herbicidal activity, post-emergence stem and leaf spray, zinnia; format: in vivo
Procedure: as §1, §2

piemarker = experiment: Determination of herbicidal activity, post-emergence stem and leaf spray, piemarker; format: in vivo
Procedure: as §1, §2

[2] = Table 2, 9.375 g a.i./hm^2, after emergence
[3] = Table 2, 37.5 g a.i./hm^2, after emergence
[4] = 9.375 g a.i./hm^2, after emergence
[5] = 37.5 g a.i./hm^2, after emergence
[6] = 150 g a.i./hm^2, after emergence, visual 0-100%

SMILES: C=CCOC(=O)c1cc(-n2c(=O)n(C)c(=S)n(C)c2=O)c(F)cc1Cl [KC1, reference compound]
- control of Chenopodium album L. (Chenopodium album L.): effectively control
- control of Amaranthus retroflexus (Amaranthus retroflexus): effectively control
- control of Setaria faberi (Setaria faberi): effectively control
- Green Bristlegrass, control effect % (green bristlegrass; [2]): 10%
- Green Bristlegrass, control effect % (green bristlegrass; [3]): 25%
- Herbicidal activity for Green Bristlegrass, control effect % (green bristlegrass; [4]): 10%
- Herbicidal activity for Green Bristlegrass, control effect % (green bristlegrass; [5]): 25%
- Barnyard Grass, control effect % (barnyard grass; [2]): 0%
- Barnyard Grass, control effect % (barnyard grass; [3]): 25%
- Herbicidal activity for Barnyard Grass, control effect % (barnyard grass; [4]): 0%
- Herbicidal activity for Barnyard Grass, control effect % (barnyard grass; [5]): 25%
- control of Commelina benghalensis Linn. [1]: effectively control
- Zinnia, control effect % (zinnia; [2]): 50%
- Zinnia, control effect % (zinnia; [3]): 60%
- Herbicidal activity for Zinnia, control effect % (zinnia; Table 3 parallel comparison, 9.375 g a.i./hm^2, after emergence): 50%
- Piemarker, control effect % (piemarker; [2]): 55%
- Piemarker, control effect % (piemarker; [3]): 100%
- Herbicidal activity for Piemarker, control effect % (piemarker; Table 4 parallel comparison, 9.375 g a.i./hm^2, after emergence): 55%

SMILES: CCOC(=O)[C@@H](C)OC(=O)c1cc(-n2c(=O)n(C)c(=S)n(C)c2=O)c(F)cc1Cl [Compound 249]
- Green Bristlegrass, control effect % (green bristlegrass; [2]): 35%
- Green Bristlegrass, control effect % (green bristlegrass; [3]): 80%
- Barnyard Grass, control effect % (barnyard grass; [2]): 30%
- Barnyard Grass, control effect % (barnyard grass; [3]): 55%
- control effects on zinnia (zinnia; [6]): 100%
- Zinnia, control effect % (zinnia; [2]): 50%
- Zinnia, control effect % (zinnia; [3]): 70%
- control effects on piemarker (piemarker; [6]): 100%
- Piemarker, control effect % (piemarker; [2]): 65%
- Piemarker, control effect % (piemarker; [3]): 100%
